Three molecules from patent publication US11634425B2, “Pharmaceutical compounds” (priority 2019, dated 2023) can be followed below.

Where two headings read alike, the source gives them in different places. A value given as a limit tells only on which side of the number the result lay.

The nature of this data set: in vitro. Format: in vitro ADME. The note with it: hepatocytes, 3 μM compound, read-out: Liver Hepatocyte Stability t1/2. On the procedure: Compounds were subjected to the following assays to investigate liver microsomal stability and hepatocyte stability.
Hepatocyte Incubation: Experimental Procedure
Cryopreserved pooled hepatocytes were purchased from a reputable commercial supplier and stored in liquid nitrogen prior to use. Williams E media supplemented with 2 mM L-glutamine and 25 mM HEPES and test compound (final substrate concentration 3 μM; final DMSO concentration 0.25%) are pre-incubated at 37° C. prior to the addition of a suspension of cryopreserved hepatocytes (final cell density 0.5×10^6 viable cells/mL in Williams E media supplemented with 2 mM L-glutamine and 25 mM HEPES) to initiate the reaction. The final incubation volume is 500 μL. Two control compounds were included with each species, alongside appropriate vehicle control. The reactions are stopped by transferring 50 μL of incubate to 100 μL acetonitrile containing internal standard at the appropriate time points. Samples were removed at 6 time points (0, 5, 15, 30, 45 and 60 min) over the course of a 60 min experiment. The termination plates are centrifuged at 2500 rpm at 4° C. for 30 min to precipitate the protein. Following protein precipitation, the sample supernatants were combined in cassettes of up to 4 compounds and analysed using generic LC-MS/MS conditions. From a plot of ln peak area ratio (compound peak area/internal standard peak area) against time, the gradient of the line is determined. Subsequently, half-life (t1/2) and intrinsic clearance (CLint) were calculated.

Consider `O=C(N[C@H]1N=C(c2ccccc2)c2ccccc2NC1=O)c1c(-c2ccccc2F)nn2cccnc12` [Example 2, 2-(2-Fluorophenyl)-N-[(3S)-2-oxo-5-phenyl-1,3-dihydro-1,4-benzodiazepin-3-yl]pyrazolo[1,5-a]pyrimidine-3-carboxamide], for which the half-life at 3 μM came to 1.12 h (dog), 145 h (human) and 3.95 h (rat).

On to `Cc1ccc(-c2nn3cccnc3c2C(=O)N[C@H]2N=C(c3ccccc3)c3cccc(F)c3NC2=O)cn1` [Example 50, N-[(3S)-9-fluoro-2-oxo-5-phenyl-1,3-dihydro-1,4-benzodiazepin-3-yl]-2-(6-methylpyridin-3-yl)pyrazolo[1,5-a]pyrimidine-3-carboxamide], for which the half-life at 3 μM (dog) was greater than 3.1 h, the half-life at 3 μM (human) is greater than 3.1 h and the half-life at 3 μM (rat) came to 96.7 h.

Take `CCc1ccc(-c2nn3cccnc3c2C(=O)N[C@H]2N=C(c3ccccc3)c3cccc(F)c3NC2=O)cn1` [Example 55]: the half-life at 3 μM (dog) came to 2.43 h, the half-life at 3 μM (human) is greater than 3.1 h and the half-life at 3 μM (rat) was found to be 1.43 h.
